Experimental data from article PMC6931124, “NPY1R-targeted peptide-mediated delivery of a dual PPARα/γ agonist to adipocytes enhances adipogenesis and prevents diabetes progression” (Molecular Metabolism, 2019).

What was measured:
PPARγ mRNA in liver = assay: PPARγ mRNA expression in liver; format: in vivo; conditions: db/db mice, 2.5 μM/kg/day, 8 days; qRT-PCR relative to control animals
Procedure: The 3T3-L1 or SGBS cells were seeded into 6-well plates and differentiated as previously described. Tesa or peptides were added to the differentiation medium at a concentration of 100 μM on day 2, followed by 12 h or 24 h incubation. On day 4, the cells were washed two times with PBS, harvested by trypsinization, and stored at −70 °C until RNA isolation was performed. […] N ≥ 3 independent experiments with two replicates were performed. For the cell culture experiments, the data were analyzed according to the 2^−ΔΔCt method using 36B4 or GAPDH as housekeeping genes and DMSO treatment as a control. Liver mRNA expression was calculated relative to 18sRNA, which was used as an internal control due to its resistance to glucose-dependent regulation. The mRNA levels were quantified using the standard curve method of QuantStudio 6 Flex software (Applied Biosystems, Foster City, CA, USA), determining the crossing points of the individual samples using an algorithm that identifies the first turning point of the fluorescence curve. Amplification of the specific transcripts was confirmed by the melting curve profiles (cooling the sample to 68 °C and heating slowly to 95 °C while measuring the fluorescence) at the end of each PCR [53]. […]

obese Zucker rats = conditions: free systemically administered tesa; ref [43]; cited from earlier work
Rectal body temperature = format: in vivo; conditions: db/db mice, 2.5 μM/kg/day, 8 days
Procedure: (§1) All of the experiments were performed according to the animal ethical laws of the state Saxony, Germany, and were approved by the local animal ethics review board (Landesdirektion Sachsen, Leipzig, Germany). Female db/db mice 12–15 weeks of age were purchased from Taconic (Denmark) and housed in groups of 5 in temperature- and humidity-controlled facilities in a 12 h:12 h light–dark cycle and had free access to tap water and food (regular chow, Sniff, Soest, Germany). Three out of seven groups served as controls (N = 15, see Table 1). The 5 db/db mice were untreated and 10 db/db mice were vehicle treated either orally or intraperitoneally (i.p.). […]
(§2) All of the mice were monitored for 9 days during the treatment period. Body weight, food intake, and water uptake were recorded daily and body composition (lean body mass and whole body fat mass) was recorded at the beginning, middle, and end of the study in the conscious mice using an EchoMRI system (Echo Medical Systems, Houston, TX, USA). At the beginning and end of the treatment period, the HbA1c levels were determined from 5 μl of whole venous blood samples using an automated chemical analyzer at the Institute of Laboratory Medicine and Clinical Chemistry and beta-ketone using an automated glucose monitor (FreeStyle Precision H, Abbott GmbH, Ludwigshafen, Germany). […]

Serum Mcp-1 = format: in vivo; conditions: db/db mice, 2.5 μmol/kg/day, 8 days; ELISA; n = 5
Procedure: as §1, with “(i.p.). One additional group (n = 5) of lean C57BL/6NTac mice was used as a metabolically healthy control group.” for “(i.p.).”
(§3) Serum insulin (mouse insulin ELISA, Mercodia, Uppsala, Sweden), adiponectin (mouse adiponectin ELISA, AdipoGen, San Diego, CA, USA), leptin (mouse leptin ELISA, Crystal Chem, Downers Grove, IL, USA), and Mcp-1 (mouse/rat CCL2/JE/Mcp-1 Quantikine ELISA, R&D Systems, Minneapolis, MN, USA) levels were analyzed via ELISA according to the manufacturer's instructions. Serum concentrations of TG, FFA, and cholesterol were measured by an automatic chemical analyzer at the Institute of Laboratory Medicine and Clinical Chemistry.

HbA1C = format: in vivo; conditions: db/db mice, 2.5 μM/kg/day, 8 days
Procedure: as §1, §2

[1] = volunteers, ref [111]; cited from earlier work
Excerpt: Thus, the observed anti-diabetic effects are assumed to result from adipocyte-specific PPARγ-mediate ...

[2] = test system: LDL receptor-deficient mice; conditions: ref [94]; cited from earlier work
Serum adiponectin = format: in vivo; conditions: db/db mice, 2.5 μmol/kg/day, 8 days; ELISA; n = 5
Procedure: as §1, with “(i.p.). One additional group (n = 5) of lean C57BL/6NTac mice was used as a metabolically healthy control group.” for “(i.p.).”
as §3

Ketone bodies = format: in vivo; conditions: db/db mice, 2.5 μM/kg/day, 8 days; n = 5
Procedure: as §1, §2

Plasma triglycerides = format: in vivo; conditions: db/db mice, 2.5 μmol/kg/day, 8 days; n = 5
Procedure: as §1, with “(i.p.). One additional group (n = 5) of lean C57BL/6NTac mice was used as a metabolically healthy control group.” for “(i.p.).”
as §3

ob/ob mice = conditions: free systemically administered tesa; ref [43]; cited from earlier work
SGBS cells = assay: qRT-PCR of adipocyte-marker genes, SGBS; format: cell-based, human; conditions: qPCR, vs DMSO; n ≥ 3
Procedure: The 3T3-L1 or SGBS cells were seeded into 6-well plates and differentiated as previously described. Tesa or peptides were added to the differentiation medium at a concentration of 100 μM on day 2, followed by 12 h or 24 h incubation. On day 4, the cells were washed two times with PBS, harvested by trypsinization, and stored at −70 °C until RNA isolation was performed. […] N ≥ 3 independent experiments with two replicates were performed. For the cell culture experiments, the data were analyzed according to the 2^−ΔΔCt method using 36B4 or GAPDH as housekeeping genes and DMSO treatment as a control. Liver mRNA expression was calculated relative to 18sRNA, which was used as an internal control due to its resistance to glucose-dependent regulation. The mRNA levels were quantified using the standard curve method of QuantStudio 6 Flex software (Applied Biosystems, Foster City, CA, USA), determining the crossing points of the individual samples using an algorithm that identifies the first turning point of the fluorescence curve. Amplification of the specific transcripts was confirmed by the melting curve profiles (cooling the sample to 68 °C and heating slowly to 95 °C while measuring the fluorescence) at the end of each PCR [53].
(A, B) Cells were differentiated and stimulated according to the protocol depicted for 3T3-L1 (A) and for SGBS (B). […] Bars represent mean ± SEM from n = 3 independent experiments performed in quadruplicates. Measurements were normalized using DMSO (vehicle)-treated cells (set to 100%). Statistical significances refer to vehicle-treated cells. (E,F) Expression of adipocyte-enriched genes in 3T3-L1 (E) or SGBS (F) adipocytes analyzed by qPCR. Values represent mean ± SEM from n ≥ 3 independent experiments performed in duplicates. […] Statistical significances refer to DMSO-treated cells and were determined by one-way analysis of variance (ANOVA) followed by Dunnett's multiple comparison test, *≤0.05, **p ≤ 0.01, ***p ≤ 0.001.

Plasma free fatty acids = format: in vivo; conditions: db/db mice, 2.5 μM/kg/day, 8 days; n = 5
Procedure: as §1, with “(i.p.). One additional group (n = 5) of lean C57BL/6NTac mice was used as a metabolically healthy control group.” for “(i.p.).”
as §3

Structure (SMILES): CCO[C@@H](Cc1ccc(OCCc2ccc(OS(C)(=O)=O)cc2)cc1)C(=O)O [tesa, tesaglitazar]
- expression of PPARγ in the liver (PPARγ mRNA in liver): significantly enhanced the expression of PPARγ in the liver
- insulin sensitivity in obese Zucker rats (obese Zucker rats): restore insulin sensitivity in obese Zucker rats
- body temperature, in words (Rectal body temperature): normalized
- Mcp-1 levels (Serum Mcp-1): no significant effect
- HbA1C change (HbA1C; vehicle/untreated increased by approximately 2%, n = 5): graduated reduced increase
- diabetes progression (HbA1C; 12-16 weeks old): deceleration of disease progression
- absorption after oral dosing [1]: rapidly and completely absorbed after oral dosing
- atherosclerosis in LDL receptor-deficient mice [2]: reduces atherosclerosis in LDL receptor-deficient mice
- adiponectin, serum (Serum adiponectin): normalization of the plasma concentration
- ketone bodies (Ketone bodies): normalization of the plasma concentration
- triglycerides (Plasma triglycerides): normalization
- anti-diabetic effect in ob/ob mice (ob/ob mice): reduce hypertriglyceridemia, hyperinsulinemia, and hyperglycemia in ob/ob mice
- Cidec expression, SGBS (SGBS cells): enhanced the expression of adiponectin, Fabp4, and Cidec
- Fabp4 expression, SGBS (SGBS cells): only Fabp4 induction by tesa reached significant differences
- adiponectin expression, SGBS (SGBS cells): enhanced the expression of adiponectin, Fabp4, and Cidec
- free fatty acids (FFA) (Plasma free fatty acids): normalization
